Laboratory results taken from paper PMC5804415, “Comparison of ^68Ga-DOTA-Siglec-9 and ^18F-Fluorodeoxyribose-Siglec-9: Inflammation Imaging and Radiation Dosimetry” (Contrast Media & Molecular Imaging, 2017).
Like-named read-outs stand apart in the source and are kept apart here. Positions of bridges follow the written chain, without caps; N, C: chain ends. Residues, ends and D or L forms follow the SMILES beside them. *: point of attachment. X1 = O=C(CON=C[C@H](O)[C@H](O)[C@H](O)CF)*; AEEA = NCCOCCOCC(=O)O

Experiments:
[1] = test system: atherosclerotic plaques in LDLR^−/−ApoB^100/100 mouse aorta; assay: Autoradiography of aortic cryosections of atherosclerotic mice; assay type: in vivo; details: LDLR^−/−ApoB^100/100 mice, n = 12, mean ± SD
Procedure: Autoradiography was used to study the distribution of radioactivity in the aorta in more detail, as described previously. After careful superimposition of the autoradiographs and H&E stained images, the count densities of 540 ROIs (185: plaques, 241: normal vessel walls, and 114: adventitia) were analyzed using Tina 2.1 software. The autoradiography results were calculated as the photostimulated luminescence per unit area (PSL/mm^2) normalized for injected radioactivity dose, and as ratios between the atherosclerotic plaque, normal vessel wall, and adventitia.

[2] = test system: LDLR^−/−ApoB^100/100 atherosclerotic mice; assay: PET/CT imaging of atherosclerotic mice; assay type: in vivo, mouse; details: atherosclerotic LDLR^−/−ApoB^100/100 mice, 10–20 min after injection, mean ± SD, n = 2
Procedure: (§1) Six-month-old atherosclerotic low-density lipoprotein receptor-deficient mice (weight, 27 ± 4.1 g; n = 19) expressing only apolipoprotein B100 (LDLR^−/−ApoB^100/100, strain #003000; Jackson Laboratory, Bar Harbor, ME, USA) were fed for 4 months with a Western-type diet. Two-month-old C57BL/6N mice (weight, 24 ± 2.2 g; n = 13) fed with a regular chow served as controls.
A subset of mice (two atherosclerotic, two controls) were injected with 4.7 ± 1.1 MBq of ^18F-FDR-Siglec-9 and imaged with an Inveon Multimodality PET/CT (Siemens, Medical Solutions, Knoxville, TN, USA). Dynamic PET images were acquired for 60 min, followed by CT with a contrast agent (eXIATM160XL, Binitio Biomedical Inc., Ottawa, ON, Canada). The PET images were reconstructed with OSEM3D (frames 5 × 60 s, 3 × 300 s, 1 × 600 s, […]).
Quantitative PET image analysis was performed by defining ROIs in the heart left ventricle (blood pool) and aortic arch as identified on the basis of the CT angiography by using the Inveon Research Workplace software (Siemens Medical Solutions, Knoxville, TN, USA). Time frames 10–20 min after injection were used for PET quantification, as previously reported in the same mouse model using ^68Ga-DOTA-Siglec-9 [4]. The results within ROIs were expressed as SUV and target-to-background ratio (SUVmax,aortic arch/SUVmean,blood).

[3] = Human radiation dosimetry extrapolated from rat PET data (OLINDA/EXM); details: mean ± SD
Procedure: Absorbed doses of ^68Ga-DOTA-Siglec-9 and ^18F-FDR-Siglec-9 were calculated with the OLINDA/EXM version 1.0 software (organ level internal dose assessment and exponential modeling; Vanderbilt University, Nashville, TN, USA), which applies the MIRD schema (developed by the Medical Internal Radiation Dose committee of the Society of Nuclear Medicine) for radiation dose calculations in internal exposure. The software includes radionuclide information and selection of human body phantoms. The residence times derived from the rat data were integrated as the area under the time-activity curve. The residence times were converted into corresponding human values by multiplication with a factor to scale the organ and body weights: (WBody,rat/WOrgan,rat)×(WOrgan,human/WBody,human), where WBody,rat and WBody,human are the body weights of rat and human (a 70-kg male), respectively; and WOrgan,rat and WOrgan,human are the organ weights of rat and human (organ weights for a 70 kg male), respectively [14].

[4] = test system: rats with skin/muscle inflammation (turpentine oil); assay type: in vivo, rat
Procedure: Rats were divided into two groups with Group 1 being intravenously (i.v.) given ^68Ga-DOTA-Siglec-9 (16 ± 2.9 MBq, n = 8) and Group 2 ^18F-FDR-Siglec-9 (18 ± 5.1 MBq, n = 8). A 60 min dynamic PET acquisition was performed on a High Resolution Research Tomograph (HRRT; Siemens Medical Solutions, Knoxville, TN, USA). The PET data were reconstructed into 5 × 60 s and 11 × 300 s frames using an ordered-subsets expectation maximization 3D algorithm (OSEM3D). Quantitative PET image analysis was performed by defining regions of interest (ROIs) within the inflamed area (on the left foreleg), control area (on the right foreleg), kidneys, lungs, heart, liver, and urinary bladder using […] 2.8 software (Turku PET Centre). Results were expressed as standardized uptake values (SUV) and time-activity curves. SUV was calculated as a ratio of tissue radioactivity concentration (Bq/mL) and given radioactivity dose (Bq) divided by animal's body weight.

[5] = Ex vivo gamma counting biodistribution in atherosclerotic mice; details: mouse, total radioactivity, LDLR^−/−ApoB^100/100 mice (n = 19), 25 min after injection, mean ± SD
Procedure: as §1
In PET studies, mice (19 atherosclerotic, 13 controls) were injected with 14 ± 4.4 MBq of ^18F-FDR-Siglec-9. Twenty-five minutes after ^18F-FDR-Siglec-9 injection, blood was drawn by cardiac puncture and the animals were killed. The thoracic aorta was excised and rinsed in saline to remove the blood. In addition, various other tissues were excised and patted dry. Samples of blood and urine were collected, and blood plasma was separated by centrifugation. […] The results were expressed as % ID/g and target-to-background ratio.

[6] = extrapolated from the rat PET data, OLINDA/EXM, 70 kg male
[7] = source organ, extrapolated from the rat PET data to 70 kg male
[8] = Sprague-Dawley rats, turpentine oil skin/muscle inflammation, i.v., dynamic PET 10–60 min, mean ± SD, SD

- Normalized number of disintegrations, Total body ([3]; extrapolated from the rat PET data to 70 kg male): 1.8 ± 0.32 h
- Human dose equivalent estimate, Adrenals [3, 6]: 0.020 ± 0.0029 mSv/MBq
- Human dose equivalent estimate, Brain [3, 6]: 0.010 ± 0.0018 mSv/MBq
- Human dose equivalent estimate, Breasts [3, 6]: 0.0086 ± 0.0011 mSv/MBq
- Human dose equivalent estimate, Gallbladder wall [3, 6]: 0.017 ± 0.0014 mSv/MBq
- Human dose equivalent estimate, Heart wall [3, 6]: 0.0085 ± 0.00045 mSv/MBq
- Human dose equivalent estimate, Kidneys [3, 6]: 0.29 ± 0.13 mSv/MBq
- Human dose equivalent estimate, Liver [3, 6]: 0.021 ± 0.0061 mSv/MBq
- Human dose equivalent estimate, Lower large intestine wall [3, 6]: 0.014 ± 0.00091 mSv/MBq
- Human dose equivalent estimate, Lungs [3, 6]: 0.0062 ± 0.00016 mSv/MBq
- Human dose equivalent estimate, Muscle [3, 6]: 0.0074 ± 0.00025 mSv/MBq
- Human dose equivalent estimate, Osteogenic cells [3, 6]: 0.016 ± 0.0019 mSv/MBq
- Human dose equivalent estimate, Ovaries [3, 6]: 0.014 ± 0.00083 mSv/MBq
- Human dose equivalent estimate, Pancreas [3, 6]: 0.018 ± 0.0015 mSv/MBq
- Human dose equivalent estimate, Red marrow [3, 6]: 0.012 ± 0.00032 mSv/MBq
- Human dose equivalent estimate, Skin [3, 6]: 0.0080 ± 0.0008 mSv/MBq
- Human dose equivalent estimate, Small intestine [3, 6]: 0.015 ± 0.00049 mSv/MBq
- Human dose equivalent estimate, Spleen [3, 6]: 0.018 ± 0.0022 mSv/MBq
- Human dose equivalent estimate, Stomach wall [3, 6]: 0.014 ± 0.00041 mSv/MBq
- Human dose equivalent estimate, Testes [3, 6]: 0.010 ± 0.0010 mSv/MBq
- Human dose equivalent estimate, Thymus [3, 6]: 0.010 ± 0.0013 mSv/MBq
- Human dose equivalent estimate, Thyroid [3, 6]: 0.0094 ± 0.0014 mSv/MBq
- Human dose equivalent estimate, Total body [3, 6]: 0.012 ± 0.00012 mSv/MBq
- Human dose equivalent estimate, Upper large intestine wall [3, 6]: 0.015 ± 0.00045 mSv/MBq
- Human dose equivalent estimate, Urinary bladder wall [3, 6]: 0.081 ± 0.032 mSv/MBq
- Human dose equivalent estimate, Uterus [3, 6]: 0.017 ± 0.0012 mSv/MBq
- Human effective dose estimate ([3]; extrapolated from the rat PET data, OLINDA/EXM, 70 kg man): 0.022 ± 0.0042 mSv/MBq
- Normalized number of disintegrations, Heart wall [3, 7]: 0.0026 ± 0.0010 h
- Normalized number of disintegrations, Kidneys [3, 7]: 0.47 ± 0.21 h
- Normalized number of disintegrations, Liver [3, 7]: 0.11 ± 0.043 h
- Normalized number of disintegrations, Lungs [3, 7]: 0.0029 ± 0.0011 h
- Normalized number of disintegrations, Muscle [3, 7]: 0.081 ± 0.042 h
- Normalized number of disintegrations, Urinary bladder wall [3, 7]: 0.15 ± 0.070 h
- time of peak uptake in the inflamed area after the i.v. bolus injection ([4]; rat, in vivo, iv): about 10 min
- tissue uptake at 25 min ([5]; LDLR^−/−ApoB^100/100 (strain #003000), liver, read-out: Ex vivo biodistribution, Liver): 3 ± 0.97 %ID/g
- tissue uptake at 25 min ([5]; LDLR^−/−ApoB^100/100 (strain #003000), lungs, read-out: Ex vivo biodistribution, Lungs): 2.4 ± 1.1 %ID/g
- tissue uptake at 25 min ([5]; LDLR^−/−ApoB^100/100 (strain #003000), muscle, read-out: Ex vivo biodistribution, Muscle): 0.62 ± 0.2 %ID/g
- tissue uptake at 25 min ([5]; LDLR^−/−ApoB^100/100 (strain #003000), pancreas, read-out: Ex vivo biodistribution, Pancreas): 0.82 ± 0.28 %ID/g
- tissue uptake at 25 min ([5]; LDLR^−/−ApoB^100/100 (strain #003000), plasma, read-out: Ex vivo biodistribution, Plasma): 5.7 ± 1.4 %ID/g
- tissue uptake at 25 min ([5]; LDLR^−/−ApoB^100/100 (strain #003000), small intestine, read-out: Ex vivo biodistribution, Small intestine): 1.6 ± 0.49 %ID/g
- tissue uptake at 25 min ([5]; LDLR^−/−ApoB^100/100 (strain #003000), spleen, read-out: Ex vivo biodistribution, Spleen): 1.1 ± 0.28 %ID/g
- tissue uptake at 25 min ([5]; adipose tissue, WAT, 14 MBq, read-out: Ex vivo biodistribution, Adipose tissue, WAT): 0.72 ± 0.66 %ID/g
- tissue uptake at 25 min ([5]; aorta, 14 MBq, read-out: Ex vivo biodistribution, Aorta): 0.93 ± 0.38 %ID/g
- tissue uptake at 25 min ([5]; blood, 14 MBq, read-out: Ex vivo biodistribution, Blood): 3.2 ± 0.82 %ID/g
- tissue uptake at 25 min ([5]; brain, 14 MBq, read-out: Ex vivo biodistribution, Brain): 0.15 ± 0.06 %ID/g
- tissue uptake at 25 min ([5]; heart, 14 MBq, read-out: Ex vivo biodistribution, Heart): 0.62 ± 0.28 %ID/g
- tissue uptake at 25 min ([5]; kidney, 14 MBq, read-out: Ex vivo biodistribution, Kidney): 44 ± 26 %ID/g
- tissue uptake at 25 min ([5]; thymus, 14 MBq, read-out: Ex vivo biodistribution, Thymus): 0.69 ± 0.19 %ID/g
- excreta dose per gram or mL at 25 min ([5]; urine, 14 MBq): 470 ± 370 %ID/g
SMILES: CC(C)C[C@@H]1NC(=O)CNC(=O)[C@H](CCCNC(=N)N)NC(=O)[C@H](Cc2c[nH]c3ccccc23)NC(=O)[C@H](CO)NC(=O)[C@H](CC(C)C)NC(=O)[C@H](CO)NC(=O)[C@H](CC(C)C)NC(=O)[C@H](CCCNC(=N)N)NC(=O)[C@H](C)NC(=O)[C@@H](NC(=O)COCCOCCNC(=O)CON=C[C@H](O)[C@H](O)[C@H](O)CF)CSSC[C@@H](C(=O)N2CCC[C@H]2C(=O)N[C@@H](CO)C(=O)N[C@@H](CCCCN)C(=O)O)NC(=O)[C@H](CC(C)C)NC(=O)[C@H]([C@@H](C)O)NC1=O [^18F-FDR-Siglec-9] ({X1-AEEA}-CARLSLSWRGLTLCPSK-OH; disulfide 1-14; N-terminus and C-terminus assumed)
- plaque-to-adventitia ratio [1]: 2.2 ± 0.53
- plaque-to-healthy vessel wall ratio [1]: 1.9 ± 0.23
- target-to-background ratio (SUVmax,aortic arch/SUVmean,blood) [2]: 1.6 ± 0.078
- SUVmean,10–60 min in the inflamed area ([4]; Sprague-Dawley rats, turpentine oil skin/muscle inflammation, i.v., dynamic PET 10–60 min, mean ± SD, n = 5 (68Ga) or 8 (18F), SD): 0.77 ± 0.22
- SUVmax,10–60 min in the inflamed area [4, 8]: 1.1 ± 0.097
- inflammation-to-blood ratio 10–60 min (PET) [4, 8]: 1.7 ± 0.51
